# Where two headings read alike, the source gives them in different places.
# What was measured:
# [1] = molecular target: T1, recombinant human JAK1 kinase domain protein (Residues 854-1154) (Homo sapiens, UniProt P23458); assay: JAK1 biochemical assay (microfluidic mobility shift, peptide phosphorylation); conditions: 25 μM ATP, 1 nM total JAK1; read-out: Enzyme JAK1 Ki
# T1 construct: human JAK1 kinase domain protein (Residues 854-1154); purchased Proteros Biostructures GmbH (Martinsried, Germany); host or cells: insect cells
# Description: JAK1 and JAK2 Biochemical Assays
# [2] = test system: JAK1: IL-13-stimulated STAT6 phosphorylation in BEAS-2B cells; assay: P-STAT6 BEAS-2B+IL-13 Cell Assay; type: cell-based, human; conditions: IL-13 stimulation, read-out: Cellular JAK1 PSTAT6 BEAS2B + IL13 IC50
# Experimental: P-STAT6 BEAS-2B+IL-13 Cell Assay
# In order to study the effect of JAK1 inhibitors in a cell line that is relevant to the cell biology of human asthma, an IL-13-stimulated STAT6 phosphorylation assay in the human lung bronchial epithelial BEAS-2B cell line was developed.
# BEAS-2B cells (ATCC® CRL-9609™) were grown in Bronchial Epithelial Growth Medium (BEGM) (Lonza Catalog No. CC-3170; Walkersville, Md.; or PromoCell Catalog No. C-21060; Heidelberg, Germany). Test compound stock solutions (0.5 mM in DMSO) were serially diluted 1:2 in DMSO to generate a 10-point concentration curve (at 500×test concentration), which was further diluted by a 50-fold dilution step in BEGM to generate a 10× concentration curve (in 2% DMSO). Cells were plated at 100,000 cells/well in 200 μL of BEGM in 96-well plates and incubated for 48 hours at 37° C. in a humidified incubator. Medium was aspirated from the cells and replaced with 70 μL of fresh BEGM. Diluted test compound (10 μL; or 2% DMSO in assay medium) was added to the cells, and the plates were incubated for 1 hour at 37° C. in a humidified incubator. Twenty μL of 250 ng/mL human recombinant IL-13 (Bio Techne Catalog No. 213-ILB) was then added to the cells and incubated for 15 minutes at 37° C. Medium was aspirated from the cells and 60 μL of ice-cold 1×cell lysis buffer (Cell Signaling Technologies; Catalog No. 9803S) containing 1 mM PMSF was added to the cells. Assay plates were incubated at −80° C. for at least 1 hour. P-STAT6 was measured by coating GAR plates (MSD; Catalog No. L45RA-1) with rabbit anti-human total STAT6 antibody (Cell Signaling Technologies; Catalog No. 9362S), incubating the cell lysates in the coated plates overnight at 4° C., and then detecting with mouse anti-phospho-STAT6 (Tyr641) Clone 16E12 antibody (Millipore; Catalog No. 05-590, custom labeled by MSD with SULFO-tag) using standard MSD plate processing, washing, and detection protocols. Plates were read on the MESO SECTOR S600. Data Analysis
# Data analysis was performed by subtracting negative control values from all wells and determining percent of control using the positive control values; the IC50 was determined with a four-parameter logistic fit model as shown in Equation 4.
# [3] = molecular target: Recombinant human JAK2 kinase domain protein (Residues 812-1132) (Homo sapiens, UniProt O60674); assay: JAK2 biochemical assay (microfluidic mobility shift, peptide phosphorylation); conditions: Enzyme JAK2 Ki (nM), 25 μM ATP, 0.2 nM total JAK2
# Chain of Recombinant human JAK2 kinase domain protein (Residues 812-1132) (O60674 812-1132): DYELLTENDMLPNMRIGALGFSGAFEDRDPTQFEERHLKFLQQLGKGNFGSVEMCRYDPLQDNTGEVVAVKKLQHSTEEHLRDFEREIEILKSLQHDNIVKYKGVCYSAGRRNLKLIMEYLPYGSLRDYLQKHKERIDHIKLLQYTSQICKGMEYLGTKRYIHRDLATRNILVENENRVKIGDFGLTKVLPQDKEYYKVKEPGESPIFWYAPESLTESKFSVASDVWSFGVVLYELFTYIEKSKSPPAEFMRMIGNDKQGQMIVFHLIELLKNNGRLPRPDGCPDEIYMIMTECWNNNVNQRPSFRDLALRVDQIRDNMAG
# T1 sequence (P23458 854-1154): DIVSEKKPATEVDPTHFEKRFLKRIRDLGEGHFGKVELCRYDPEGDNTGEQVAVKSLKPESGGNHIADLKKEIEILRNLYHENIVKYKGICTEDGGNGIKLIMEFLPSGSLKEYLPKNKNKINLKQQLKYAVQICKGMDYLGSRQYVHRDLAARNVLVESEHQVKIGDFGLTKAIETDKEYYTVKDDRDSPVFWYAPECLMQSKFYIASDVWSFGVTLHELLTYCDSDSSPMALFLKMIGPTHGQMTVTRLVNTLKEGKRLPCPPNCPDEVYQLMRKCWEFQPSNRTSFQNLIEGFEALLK
SMILES,Ki [1],IC50 [2],Ki [3],"IC50 ([2]; Homo sapiens, BEAS-2B)"
"CC(O)C(C)S(=O)(=O)c1ccc(OC(F)F)c(-c2nn(C)cc2NC(=O)c2cnn3cccnc23)c1 (single isomer, unassigned) [Example 70, N-[3-[2-(difluoromethxoy)-5-(2-hydroxy-1-methyl-propyl)sulfonyl-phenyl]-1-methyl-pyrazol-4-yl]pyrazolo[1,5-a]pyrimidine-3-carboxamide]",1 nM,75 nM,0.33 nM,
"CN1C=Cc2ccc(S(=O)(=O)c3ccc(OC(F)F)c(-c4nn(C)cc4NC(=O)c4cnn5cccnc45)c3)cc2C1 [Example 62, N-[3-[2-(difluoromethoxy)-5-[(2-methyl-1H-isoquinolin-7-yl)sulfonyl]phenyl]-1-methyl-pyrazol-4-yl]pyrazolo[1,5-a]pyrimidine-3-carboxamide]",2 nM,,0.93 nM,150 nM
"Cn1cc(NC(=O)c2cnn3cccnc23)c(-c2cc(S(=O)(=O)c3ccc(=O)[nH]c3)ccc2OC(F)F)n1 [Example 43, N-[3-[2-(difluoromethoxy)-5-[(6-oxo-1H-pyridin-3-yl)sulfonyl]phenyl]-1-methyl-pyrazol-4-yl]pyrazolo[1,5-a]pyrimidine-3-carboxamide]",0.5 nM,,0.27 nM,≥ 1000 nM
"Cn1cc(NC(=O)c2cnn3cccnc23)c(-c2cc(S(=O)(=O)c3cncnc3)ccc2OC(F)F)n1 [Example 67, N-[3-[2-(difluoromethoxy)-5-pyrimidin-5-ylsulfonyl-phenyl]-1-methyl-pyrazol-4-yl]pyrazolo[1,5-a]pyrimidine-3-carboxamide]",0.48 nM,,0.24 nM,25 nM
"CN1CC(n2cc(NC(=O)c3cnn4cccnc34)c(-c3cc(S(=O)(=O)C4CC4)ccc3OC(F)F)n2)C1 [Example 52, N-[3-[5-cyclopropylsulfonyl-2-(difluoromethoxy)phenyl]-1-(1-methylazetidin-3-yl)pyrazol-4-yl]pyrazolo[1,5-a]pyrimidine-3-carboxamide]",2.2 nM,,1 nM,96 nM
"CN1CCC(S(=O)(=O)c2ccc(OC(F)F)c(-c3nn(C)cc3NC(=O)c3cnn4cccnc34)c2)C1 (single isomer, unassigned) [Example 19, N-[3-[2-(difluoromethoxy)-5-(1-methylpyrrolidin-3-yl)sulfonyl-phenyl]-1-methyl-pyrazol-4-yl]pyrazolo[1,5-a]pyrimidine-3-carboxamide]",4 nM,,1.7 nM,120 nM
"CN1CCC(S(=O)(=O)c2ccc(OC(F)F)c(-c3nn(C)cc3NC(=O)c3cnn4cccnc34)c2)C1 (single isomer, unassigned) [Example 20, N-[3-[2-(difluoromethoxy)-5-(1-methylpyrrolidin-3-yl)sulfonyl-phenyl]-1-methyl-pyrazol-4-yl]pyrazolo[1,5-a]pyrimidine-3-carboxamide]",1.5 nM,65 nM,0.65 nM,
"Cn1cc(NC(=O)c2cnn3cccnc23)c(-c2cc(S(=O)(=O)C3CCNC3)ccc2OC(F)F)n1 (stereo not drawn) [Example 10, N-[3-[2-(difluoromethoxy)-5-pyrrolidin-3-ylsulfonyl-phenyl]-1-methyl-pyrazol-4-yl]pyrazolo[1,5-a]pyrimidine-3-carboxamide]",0.95 nM,,0.6 nM,52 nM
"CS(=O)(=O)c1ccc(OC(F)F)c(-c2nn(C3CCOC3=O)cc2NC(=O)c2cnn3cccnc23)c1 (single isomer, unassigned) [Example 33, N-[3-[2-(difluoromethoxy)-5-methylsulfonyl-phenyl]-1-(2-oxotetrahydrofuran-3-yl)pyrazol-4-yl]pyrazolo[1,5-a]pyrimidine-3-carboxamide]",0.4 nM,99 nM,0.23 nM,
"Cn1cc(NC(=O)c2cnn3cccnc23)c(-c2cc(S(=O)(=O)CCN)ccc2OC(F)F)n1 [Example 8, N-[3-[5-(2-aminoethylsulfonyl)-2-(difluoromethoxy)phenyl]-1-methyl-pyrazol-4-yl]pyrazolo[1,5-a]pyrimidine-3-carboxamide]",0.82 nM,,0.48 nM,92 nM
"Cn1cc(NC(=O)c2cnn3cccnc23)c(-c2cc(S(=O)(=O)c3cccc(CCN)c3)ccc2OC(F)F)n1 [Example 18, N-[3-[5-[3-(2-aminoethyl)phenyl]sulfonyl-2-(difluoromethoxy)phenyl]-1-methyl-pyrazol-4-yl]pyrazolo[1,5-a]pyrimidine-3-carboxamide]",0.43 nM,,0.4 nM,290 nM
"CC(C)OC(=O)n1cc(NC(=O)c2cnn3cccnc23)c(-c2cc(S(C)(=O)=O)ccc2OC(F)F)n1 [Example 34, isopropyl 3-[2-(difluoromethoxy)-5-methylsulfonyl-phenyl]-4-(pyrazolo[1,5-a]pyrimidine-3-carbonylamino)pyrazole-1-carboxylate]",0.31 nM,,0.29 nM,21 nM
"Cn1cc(NC(=O)c2cnn3cccnc23)c(-c2cc(S(=O)(=O)C3CNC3)ccc2OC(F)F)n1 [Example 4, N-[3-[5-(azetidin-3-ylsulfonyl)-2-(difluoromethoxy)phenyl]-1-methyl-pyrazol-4-yl]pyrazolo[1,5-a]pyrimidine-3-carboxamide]",1.4 nM,,0.6 nM,180 nM
"CC(O)C(C)S(=O)(=O)c1ccc(OC(F)F)c(-c2nn(C)cc2NC(=O)c2cnn3cccnc23)c1 (single isomer, unassigned) [Example 71, N-[3-[2-(difluoromethoxy)-5-(2-hydroxy-1-methyl-propyl)sulfonyl-phenyl]-1-methyl-pyrazol-4-yl]pyrazolo[1,5-a]pyrimidine-3-carboxamide]",1.4 nM,110 nM,0.46 nM,
"CS(=O)(=O)c1ccc(OC(F)F)c(-c2nn(C3CCOC3=O)cc2NC(=O)c2cnn3cccnc23)c1 (single isomer, unassigned) [Example 32, N-[3-[2-(difluoromethoxy)-5-methylsulfonyl-phenyl]-1-(2-oxotetrahydrofuran-3-yl)pyrazol-4-yl]pyrazolo[1,5-a]pyrimidine-3-carboxamide]",1.1 nM,,0.62 nM,120 nM
"Cn1cc(NC(=O)c2cnn3cccnc23)c(-c2cc(S(=O)(=O)c3cnn(CCN4CCC4)c3)ccc2OC(F)F)n1 [Example 53, N-[3-[5-[1-[2-(azetidin-1-yl)ethyl]pyrazol-4-yl]sulfonyl-2-(difluoromethoxy)phenyl]-1-methyl-pyrazol-4-yl]pyrazolo[1,5-a]pyrimidine-3-carboxamide]",0.94 nM,,0.19 nM,50 nM
"CN1CCN(CCn2cc(S(=O)(=O)c3ccc(OC(F)F)c(-c4nn(C)cc4NC(=O)c4cnn5cccnc45)c3)cn2)CC1 [Example 54, N-[3-[2-(difluoromethoxy)-5-[1-[2-(4-methylpiperazin-1-yl)ethyl]pyrazol-4-yl]sulfonyl-phenyl]-1-methyl-pyrazol-4-yl]pyrazolo[1,5-a]pyrimidine-3-carboxamide]",1.2 nM,,0.21 nM,140 nM
"Cn1cc(NC(=O)c2cnn3cccnc23)c(-c2cc(S(=O)(=O)c3cnn(C4CN5CCC4CC5)c3)ccc2OC(F)F)n1 (stereo not drawn) [Example 55, N-[3-[2-(difluoromethoxy)-5-(1-quinuclidin-3-ylpyrazol-4-yl)sulfonyl-phenyl]-1-methyl-pyrazol-4-yl]pyrazolo[1,5-a]pyrimidine-3-carboxamide]",0.93 nM,,0.98 nM,71 nM
"CC(=O)N1CC(S(=O)(=O)c2ccc(OC(F)F)c(-c3nn(C)cc3NC(=O)c3cnn4cccnc34)c2)C1 [Example 27, N-[3-[5-(1-acetylazetidin-3-yl)sulfonyl-2-(difluoromethoxy)phenyl]-1-methyl-pyrazol-4-yl]pryazolo[1,5-a]pyrimidine-3-carboxamide]",0.59 nM,,0.26 nM,99 nM
